Tests used:
SERT [1] = molecular target: T1, SERT (Homo sapiens, UniProt P31645); test: Whole-cell patch clamp, transporter-mediated currents in HEK293 cells; format: cell-based; details: for EC50: clamped at −60 mV, N = 5, read-out: SERT-mediated inward current EC50; for SERT-mediated inward current Emax: normalized to current elicited by 5-HT 10 µM; for SERT substrate type: whole-cell patch clamp
T1 construct: YFP (yellow-fluorescent protein); expressed in transfected cells
Excerpt: Whole-cell patch clamping was used to measure the transporter-mediated currents and performed as previously described. […] Cells were continuously superfused by a DAD-12 superfusion system and an 8-tube perfusion manifold (ALA Scientific Instruments in Farmingdale, NY, USA), which allowed to apply a physiological external solution. The pipette solution mimics the internal ionic composition of a cell. […] Passive holding currents were subtracted, and the traces were filtered using a 50-Hz digital Gaussian low-pass filter for analysis purposes. Five independent experiments were performed.

SERT [2] = molecular target: T1, SERT; test: Superfusion release assay of [3H]5-HT; format: cell-based
Description: Concentration-response release assays were performed using a superfusion assay. […] Afterwards, cells were manually and gently washed once with KHB, and superfused with KHB at a rate of 0.5 mL/min for 10 min at room temperature (RT), to establish a stable basal release. Three 2 min-fractions of basal release were collected in 10 mL counting vials before exposing cells to various concentrations of 5-MeO-pyr-T (five fractions). Subsequently, the cells were superfused with 1% SDS for three final fractions to determine total radioactivity present at cells at the end of the experiment. 2 mL of scintillation cocktail was added to each vial, radioactivity was measured and expressed as percentage of released radioactivity in relation to the total radioactivity present at the beginning of that fraction. Experiments were performed per triplicate for five independent experiments.

T1 sequence (P31645 whole entry): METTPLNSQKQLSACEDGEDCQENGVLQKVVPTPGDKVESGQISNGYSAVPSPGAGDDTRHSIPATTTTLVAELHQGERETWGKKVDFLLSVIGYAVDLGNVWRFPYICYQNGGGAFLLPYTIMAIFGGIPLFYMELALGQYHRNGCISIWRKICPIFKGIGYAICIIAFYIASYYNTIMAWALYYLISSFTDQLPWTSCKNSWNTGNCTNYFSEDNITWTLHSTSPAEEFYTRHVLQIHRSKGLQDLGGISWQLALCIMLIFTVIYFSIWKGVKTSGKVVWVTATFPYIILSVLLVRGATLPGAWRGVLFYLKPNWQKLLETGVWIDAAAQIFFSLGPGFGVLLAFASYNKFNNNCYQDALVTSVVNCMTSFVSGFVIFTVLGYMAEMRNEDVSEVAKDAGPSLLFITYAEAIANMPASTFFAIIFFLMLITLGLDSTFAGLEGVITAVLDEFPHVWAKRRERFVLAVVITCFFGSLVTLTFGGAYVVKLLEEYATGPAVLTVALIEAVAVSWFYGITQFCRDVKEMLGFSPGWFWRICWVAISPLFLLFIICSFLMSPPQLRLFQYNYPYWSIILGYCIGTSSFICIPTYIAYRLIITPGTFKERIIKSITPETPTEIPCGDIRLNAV

SMILES	EC50 (SERT [1])	SERT-mediated inward current Emax (SERT [1])	SERT substrate type (SERT [1])	5-HT releaser type (SERT [2]; peak of efflux vs positive control pCA)	EC50 (SERT [2]; read-out: 5-HT release EC50, superfusion, N = 5)
CCN(CC)CCc1c[nH]c2ccc(OC)cc12 [5-MeO-DET]	3.5 µM	0.26	partial SERT substrates		
COc1ccc2[nH]cc(CCN3CCCC3)c2c1 [5-MeO-pyr-T]	0.09 µM	0.49	partial SERT substrates	5-HT partial releaser	5.7 ± 1.59 µM
CCN(C)CCc1c[nH]c2ccc(OC)cc12 [5-MeO-MET]	13 µM	0.46	partial SERT substrates		

From publication PMC11412900 (Molecular Psychiatry, 2024)
